Experimental data: PubChem BioAssay AID192 (DTP/NCI, 2004)
Where “and” joins values, the source holds several entries; their conditions need not be identical. Equal values may be shown once. Toxic doses and inconclusive results are not listed. How the source made its calls: active means survival T/C of 150% or more; inactive means T/C below 125% in these data.

Test system: BDF1 mice, B16 melanoma ip, median survival T/C
Test: NCI In Vivo Anticancer Drug Screen. Data for tumor model B16 Melanoma (intraperitoneal) in B6D2F1 (BDF1) mice
Settings: endpoint: median survival time, higher = longer survival
How it was run: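 Values are ratios of treated (T) to vehicle-control (C) measurements of survival or tumor size in tumor-bearing mice.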

[1] = dose: 3.13 mg/kg/injection, schedule: Q01DX009 (ip), vehicle: saline
[2] = dose: 6.25 mg/kg/injection, schedule: Q01DX009 (ip), vehicle: saline
[3] = dose: 12.5 mg/kg/injection, schedule: Q01DX009 (ip), vehicle: saline
[4] = dose: 25.0 mg/kg/injection, schedule: Q01DX009 (ip), vehicle: saline
[5] = dose: 50.0 mg/kg/injection, schedule: Q01DX009 (ip), vehicle: saline
[6] = dose: 100.0 mg/kg/injection, schedule: Q01DX009 (ip), vehicle: saline
[7] = dose: 25.0 mg/kg/injection, schedule: Q01DX009 (ip), vehicle: saline with Tween-80
[8] = dose: 50.0 mg/kg/injection, schedule: Q01DX009 (ip), vehicle: saline with Tween-80
[9] = dose: 100.0 mg/kg/injection, schedule: Q01DX009 (ip), vehicle: saline with Tween-80
[10] = dose: 6.25 mg/kg/injection, schedule: Q01DX009 (ip), vehicle: saline with Tween-80
[11] = dose: 12.5 mg/kg/injection, schedule: Q01DX009 (ip), vehicle: saline with Tween-80
[12] = dose: 200.0 mg/kg/injection, schedule: Q01DX009 (ip), vehicle: saline with Tween-80
[13] = dose: 100.0 mg/kg/injection, schedule: Q04DX003 (ip), vehicle: Klucel (hydroxypropylcellulose) (HPC)
[14] = dose: 25.0 mg/kg/injection, schedule: Q01DX009 (ip), vehicle: Klucel (hydroxypropylcellulose) (HPC)

Measured: T/C

C/C=C(\C)C(=O)OC1C(C)C2(O)C(C=C(CO)CC3(O)C(=O)C(C)=CC32)C2C(C)(C)C12OC(=O)CCCCCCCCC (stereo not given)
inactive: dose: 0.13 mg/kg/injection, schedule: Q01DX009 (ip), vehicle: saline + alcohol 102 % of control and 104 % of control | dose: 0.25 mg/kg/injection, schedule: Q01DX009 (ip), vehicle: saline + alcohol 92 % of control and 94 % of control | dose: 0.5 mg/kg/injection, schedule: Q01DX009 (ip), vehicle: saline + alcohol 92 % of control

Oc1ccc(Cl)c2cccnc12
inactive: dose: 12.5 mg/kg/injection, schedule: Q01DX009 (ip), vehicle: carboxymethylcellulose (CMC) 90 % of control | dose: 25.0 mg/kg/injection, schedule: Q01DX009 (ip), vehicle: carboxymethylcellulose (CMC) 96 % of control | dose: 50.0 mg/kg/injection, schedule: Q01DX009 (ip), vehicle: carboxymethylcellulose (CMC) 97 % of control

CC(=O)OC1C(CO)OC2C1Oc1nc(=N)c(F)cn12 (stereo not given)
inactive: [1] 88 % of control | [2] 93 % of control | [3] 90 % of control | [4] 86 % of control | [5] 91 % of control

CC(NC(=O)C(F)(F)F)C(=O)O (stereo not given)
inactive: dose: 100.0 mg/kg/injection, schedule: Q04DX003 (ip), vehicle: saline 100 % of control | dose: 200.0 mg/kg/injection, schedule: Q04DX003 (ip), vehicle: saline 86 % of control

CC(N)C(=O)NC(CC(=O)O)C(=O)O (stereo not given)
inactive: [3] 99 % of control | [4] 93 % of control | [5] 98 % of control | [6] 93 % of control | dose: 200.0 mg/kg/injection, schedule: Q01DX009 (ip), vehicle: saline 98 % of control

CC(=O)OCC1OC(n2cnc3c(=S)nc(N)[nH]c32)C(OC(C)=O)C1OC(C)=O (stereo not given)
inactive: [2] 118 % of control | [3] 105 % of control | [4] 101 % of control

O=C(Nc1ccccc1)Nc1cc(C(F)(F)F)ccc1Cl
inactive: dose: 100.0 mg/kg/injection, schedule: Q04DX009 (ip), vehicle: Klucel (hydroxypropylcellulose) (HPC) 109 % of control | dose: 200.0 mg/kg/injection, schedule: Q04DX003 (ip), vehicle: carboxymethylcellulose (CMC) 90 % of control | dose: 200.0 mg/kg/injection, schedule: Q04DX009 (ip), vehicle: Klucel (hydroxypropylcellulose) (HPC) 106 % of control | dose: 400.0 mg/kg/injection, schedule: Q04DX003 (ip), vehicle: carboxymethylcellulose (CMC) 92 % of control | dose: 400.0 mg/kg/injection, schedule: Q04DX009 (ip), vehicle: Klucel (hydroxypropylcellulose) (HPC) 86 % of control

CC1(C)OC2OC(COC(=O)c3ccccc3)C(=O)C2O1 (stereo not given)
inactive: [7] 94 % of control | [8] 97 % of control | [9] 93 % of control | dose: 400.0 mg/kg/injection, schedule: Q01DX009 (ip), vehicle: saline with Tween-80 88 % of control

Cc1ccc(S(=O)(=O)OC2CCN(C)CC2)cc1
inactive: dose: 3.0 mg/kg/injection, schedule: Q04DX003 (ip), vehicle: Klucel (hydroxypropylcellulose) (HPC) 90 % of control | dose: 6.0 mg/kg/injection, schedule: Q04DX003 (ip), vehicle: Klucel (hydroxypropylcellulose) (HPC) 86 % of control | [2] 100 % of control | dose: 6.25 mg/kg/injection, schedule: Q04DX003 (ip), vehicle: saline 94 % of control | [3] 100 % of control | dose: 12.5 mg/kg/injection, schedule: Q04DX003 (ip), vehicle: saline 97 % of control | [4] 100 % of control | dose: 25.0 mg/kg/injection, schedule: Q04DX003 (ip), vehicle: saline 94 % of control

COc1cc2c3c(c1)-c1nc4ccccc4cc1CN3CCC2
inactive: dose: 25.0 mg/kg/injection, schedule: Q04DX003 (ip), vehicle: alcohol 111 % of control | dose: 50.0 mg/kg/injection, schedule: Q04DX003 (ip), vehicle: alcohol 104 % of control | dose: 100.0 mg/kg/injection, schedule: Q04DX003 (ip), vehicle: alcohol 106 % of control | dose: 200.0 mg/kg/injection, schedule: Q04DX003 (ip), vehicle: alcohol 98 % of control

NNCCc1ccccc1
inactive: dose: 3.12 mg/kg/injection, schedule: Q01DX009 (ip), vehicle: saline 94 % of control | [3] 117 % of control | [4] 100 % of control | [5] 97 % of control

Clc1ccc2c(c1)/C(=C/c1ccccc1Cl)c1cc(Cl)cc(Cl)c1-2
inactive: [10] 90 % of control | [11] 88 % of control

Cc1cc2c(C(C)C)c(O)c(O)c(C=O)c2c(O)c1-c1c(C)cc2c(C(C)C)c(O)c(O)c(C=O)c2c1O
inactive: dose: 0.25 mg/kg/injection, schedule: Q01DX009 (ip), vehicle: Klucel (hydroxypropylcellulose) (HPC) 93 % of control | dose: 0.5 mg/kg/injection, schedule: Q01DX009 (ip), vehicle: Klucel (hydroxypropylcellulose) (HPC) 91 % of control | dose: 1.0 mg/kg/injection, schedule: Q01DX009 (ip), vehicle: Klucel (hydroxypropylcellulose) (HPC) 96 % of control | dose: 2.0 mg/kg/injection, schedule: Q01DX009 (ip), vehicle: Klucel (hydroxypropylcellulose) (HPC) 104 % of control | dose: 4.0 mg/kg/injection, schedule: Q01DX009 (ip), vehicle: Klucel (hydroxypropylcellulose) (HPC) 91 % of control | dose: 8.0 mg/kg/injection, schedule: Q01DX009 (ip), vehicle: Klucel (hydroxypropylcellulose) (HPC) 91 % of control

CC(C)CC(NC(=O)C(CC(C)C)NC(=O)OCc1ccccc1)C(=O)O (stereo not given)
inactive: [8] 97 % of control | [9] 101 % of control | [12] 92 % of control

Nc1nc(Nc2ccccc2)nc(C(=O)O)n1
inactive: [13] 100 % of control | dose: 200.0 mg/kg/injection, schedule: Q04DX003 (ip), vehicle: Klucel (hydroxypropylcellulose) (HPC) 97 % of control | dose: 400.0 mg/kg/injection, schedule: Q04DX003 (ip), vehicle: Klucel (hydroxypropylcellulose) (HPC) 92 % of control

CC(C)CN(CCCCO)CC(C)C
inactive: [8] 102 % of control | [9] 111 % of control | [12] 98 % of control

c1ccc2c(CNC3CCCCC3)c[nH]c2c1
inactive: [14] 89 % of control | dose: 50.0 mg/kg/injection, schedule: Q01DX009 (ip), vehicle: Klucel (hydroxypropylcellulose) (HPC) 97 % of control | [13] 92 % of control

OCC(O)c1ccccn1 (stereo not given)
inactive: [6] 123 % of control | dose: 400.0 mg/kg/injection, schedule: Q01DX009 (ip), vehicle: saline 123 % of control

C/C(=N\O)C(=O)c1ccccc1
inactive: dose: 100.0 mg/kg/injection, schedule: Q01DX009 (ip), vehicle: Klucel (hydroxypropylcellulose) (HPC) 100 % of control | dose: 200.0 mg/kg/injection, schedule: Q01DX009 (ip), vehicle: Klucel (hydroxypropylcellulose) (HPC) 100 % of control | dose: 400.0 mg/kg/injection, schedule: Q01DX009 (ip), vehicle: Klucel (hydroxypropylcellulose) (HPC) 103 % of control

C/C(=N/NC(N)=S)c1ccc2ccccc2c1
inactive: dose: 6.0 mg/kg/injection, schedule: Q01DX009 (ip), vehicle: saline with Tween-80 111 % of control | dose: 12.0 mg/kg/injection, schedule: Q01DX009 (ip), vehicle: saline with Tween-80 105 % of control

CC1=CC(=NN=c2cc(C)n([O-])c(C)c2)C=C(C)[N+]1=O
inactive: [11] 111 % of control | [7] 115 % of control | [8] 118 % of control

Nc1nnc[se]1
inactive: dose: 3.13 mg/kg/injection, schedule: Q01DX009 (ip), vehicle: saline with Tween-80 106 % of control | [10] 97 % of control | [11] 102 % of control | [7] 115 % of control

[Br][Pt].[NH-]CC[N-]CC[NH-]
inactive: [1] 108 % of control | [2] 90 % of control | [3] 91 % of control | [4] 91 % of control

O=[N+]([O-])c1cccnc1Oc1cccc(C(F)(F)F)c1
inactive: dose: 135.0 mg/kg/injection, schedule: Q04DX003 (ip), vehicle: Klucel (hydroxypropylcellulose) (HPC) 110 % of control | dose: 195.0 mg/kg/injection, schedule: Q04DX003 (ip), vehicle: Klucel (hydroxypropylcellulose) (HPC) 115 % of control | dose: 450.0 mg/kg/injection, schedule: Q04DX003 (ip), vehicle: Klucel (hydroxypropylcellulose) (HPC) 100 % of control

C=C(Br)CN(CC)CC
inactive: dose: 6.25 mg/kg/injection, schedule: Q01DX009 (ip), vehicle: Klucel (hydroxypropylcellulose) (HPC) 100 % of control | dose: 12.5 mg/kg/injection, schedule: Q01DX009 (ip), vehicle: Klucel (hydroxypropylcellulose) (HPC) 92 % of control | [14] 103 % of control
